Measurements reported in patent US20110230497A1, “BIOLOGICALLY ACTIVE AMIDES” (H. Lundbeck A/S, priority 2008, published 2011).

Molecular target: T1, NPY Y5 receptor (Homo sapiens, UniProt Q15761)
T1 sequence (Q15761 1-445): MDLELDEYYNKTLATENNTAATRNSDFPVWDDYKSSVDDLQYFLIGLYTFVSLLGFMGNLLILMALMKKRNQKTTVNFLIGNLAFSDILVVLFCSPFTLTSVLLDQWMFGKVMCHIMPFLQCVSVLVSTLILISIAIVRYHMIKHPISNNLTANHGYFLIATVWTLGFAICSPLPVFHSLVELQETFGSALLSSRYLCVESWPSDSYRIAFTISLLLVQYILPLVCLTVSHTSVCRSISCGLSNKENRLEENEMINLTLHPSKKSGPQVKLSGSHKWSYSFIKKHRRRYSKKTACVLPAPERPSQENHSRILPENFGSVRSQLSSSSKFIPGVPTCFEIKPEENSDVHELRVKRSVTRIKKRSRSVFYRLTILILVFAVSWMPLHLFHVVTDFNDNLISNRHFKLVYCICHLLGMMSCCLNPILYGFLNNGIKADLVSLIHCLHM
Assay: NPY Y5-dependent inhibition of forskolin-stimulated cAMP accumulation
Assay type: cell-based
Design: expressed in transfected cells
Settings: effect on agonist (NPY) activity, cAMP HTRF
Procedure: Stably transfected cells were seeded into 96-well microtiter plates and cultured until confluent. To reduce the potential for receptor desensitization, the serum component of the media was reduced to 1.5% for 4 to 16 hours before the assay. Cells were washed in […], or HBS (150 mM NaCl, 20 mM HEPES, 1 mM CaCl2, 5 mM KCl, 1 mM MgCl2, and 10 mM glucose) supplemented with 0.1% bovine serum albumin plus 100 uM IBMX. Test compounds were diluted to desired concentrations with assay buffer in the presence of 10% DMSO, then transferred to the cell plate and allowed to incubate for 20 min at 37° C. in 5% CO2 (final DMSO=1%). Cells were then stimulated with NPY (up to 10 uM) for a period of 5 min, followed by forskolin (10 uM) for another 5 min. The assay was then terminated and intracellular cAMP was quantified by with highthroughput time-resolved fluorometry (HTRF kit from CisBio, Bedford, Mass.). The effect of the test compound on agonist (NPY) activity were analyzed using nonlinear regression and statistical techniques available in the GraphPAD Prism package (San Diego, Calif.).

SMILES | function at the NPY Y5 receptor
CC(=O)N1CCC(CC(=O)Nc2ccc(-c3cc(F)cc(F)c3)cn2)CC1 [Example 2a, 2-(1-Acetyl-piperidin-4-yl)-N-[5-(3,5-difluoro-phenyl)-pyridin-2-yl]-acetamide] | antagonists
CC(=O)N1CCC(C(C)(C)C(=O)Nc2ccc(-c3cc(F)cc(F)c3)cn2)CC1 [Example 4a, 2-(1-Acetyl-piperidin-4-yl)-N-[5-(3,5-difluoro-phenyl)-pyridin-2-yl]-isobutyramide] | antagonists

Molecular target: T1, NPY Y5 receptor
Assay: Radioligand (125I-PYY) binding to membrane suspensions, cloned human NPY Y5 receptor
Design: expressed in transfected cells; host or cells: LM(tk-) cells (typically)
Settings: 125I-PYY competition binding, membranes of transfected cells; read-out: Ki (nM), binding affinity of selected compounds
Procedure: The pharmacological properties of the compounds of the present invention were evaluated at the cloned human NPY Y5 receptor using the protocols disclosed in U.S. Pat. No. 6,124,331, the contents of which are hereby incorporated by reference, or in an assay as similarly described therein for NPY Y5 binding activity. The procedures for cell culture, transient transfection and membrane harvest, which are well known in the art, are described therein
Briefly, membrane suspensions from transfected cells (typically expressed in LM(tk-) cells) and ^125I-PYY radioligand (PerkinElmer, Waltham, Mass.) were diluted in binding buffer supplemented with 0.1% bovine serum albumin to yield an optimal membrane protein concentration so that ^125I-PYY bound by membranes in the assay was less than 10% of ^125I-PYY delivered to the sample (100,000 dpm/sample=0.08 nM for competition binding assays). Test compounds were diluted to desired concentrations with supplemented binding buffer in the presence of 30% DMSO. The binding assay was performed in 96-well polypropylene microtiter plates by mixing ^125I-PYY, test compound (25 μL), and finally, membrane suspensions (200 μL). Final DMSO=3%. Samples were incubated in at room temperature for about 120 min. Incubations were terminated by filtration over Whatman GF/C filters (pre-coated with 1% polyethyleneimine and air-dried before use), followed by washing with ice-cold binding buffer. Filter-trapped membranes were impregnated with MeltiLex solid scintillant (Wallac, Turku, Finland) and counted for ^125I-PYY in a Wallac MicroBeta Trilux. Non-specific binding was defined by 1000 nM porcine NPY. Specific binding was typically 80%; most non-specific binding was associated with the filter. Binding data were analyzed using nonlinear regression and statistical techniques available in the GraphPAD Prism package (San Diego, Calif.).

SMILES | Ki
CC(=O)N1CCN(CC(=O)Nc2ccc(-c3cc(F)cc(F)c3)cn2)CC1 [Example 1a, 2-(4-Acetyl-piperazin-1-yl)-N-[5-(3,5-difluoro-phenyl)-pyridin-2-yl]-acetamide] | 220 nM
CC(=O)N1CCN(CC(=O)Nc2ccc(-c3cc(F)cc(F)c3)cn2)C[C@@H]1C [Example 1e, 2-((S)-4-Acetyl-3-methyl-piperazin-1-yl)-N-[5-(3,5-difluoro-phenyl)-pyridin-2-yl]-acetamide] | 120 nM
CC(=O)N1CCC(CC(=O)Nc2ccc(-c3cc(F)cc(F)c3)cn2)CC1 [Example 2a, 2-(1-Acetyl-piperidin-4-yl)-N-[5-(3,5-difluoro-phenyl)-pyridin-2-yl]-acetamide] | 46 nM
CS(=O)(=O)N1CCC(CC(=O)Nc2ccc(-c3cc(F)cc(F)c3)nc2)CC1 [Example 2aj, N-[6-(3,5-Difluoro-phenyl)-pyridin-3-yl]-2-(1-methanesulfonyl-piperidin-4-yl)-acetamide] | 28 nM
O=C(C[C@H]1CCN2C(=O)CC[C@H]2C1)Nc1ccc(-c2cc(F)cc(F)c2)cn1 [Example 3a] | 36 nM
O=C(C[C@H]1CCN2C(=O)OC[C@H]2C1)Nc1ccn(-c2ccc(Cl)cc2F)n1 [Example 3cc, N-[1-(4-Chloro-2-fluoro-phenyl)-1H-pyrazol-3-yl]-2-((7S,8aR)-3-oxo-hexahydro-oxazolo[3,4-a]pyridin-7-yl)-acetamide] | 8 nM
O=C(C[C@H]1CCN2C(=O)OC[C@H]2C1)Nc1cc(-c2cccc(C(F)(F)F)c2)no1 [Example 3hh, 2-((7S,8aR)-3-oxo-hexahydro-oxazolo[3,4-a]pyridin-7-yl)-N-[3-(3-trifluoromethyl-phenyl)-isoxazol-5-yl]-acetamide] | 39 nM
CC1(C)OC(=O)N2CCC(CC(=O)Nc3ccn(-c4ccccc4F)n3)CC21 (centres unmarked) [Example 3i, 2-(1,1-Dimethyl-3-oxo-hexahydro-oxazolo[3,4-a]pyridin-7-yl)-N-[1-(2-fluoro-phenyl)-1H-pyrazol-3-yl]-acetamide] | 50 nM
O=C(CC1CCN2C(=O)OCC2C1)Nc1cnc(-c2cc(F)cc(F)c2)cn1 (centres unmarked) [Example 3l, N-[5-(3,5-Difluoro-phenyl)-pyrazin-2-yl]-2-(3-oxo-hexahydro-oxazolo[3,4-a]pyridin-7-yl)-acetamide] | 25 nM
O=C(C[C@H]1CCN2C(=O)OC[C@H]2C1)Nc1ccc(-c2cc(F)cc(F)c2)cn1 [Example 3o, N-[5-(3,5-Difluoro-phenyl)-pyridin-2-yl]-2-((7S,8aR)-3-oxo-hexahydro-oxazolo[3,4-a]pyridin-7-yl)-acetamide] | 17 nM
CC(=O)N1CCC(C(C)(C)C(=O)Nc2ccc(-c3cc(F)cc(F)c3)cn2)CC1 [Example 4a, 2-(1-Acetyl-piperidin-4-yl)-N-[5-(3,5-difluoro-phenyl)-pyridin-2-yl]-isobutyramide] | 66 nM
CC(=O)N1CCC(CC(=O)Nc2ccc(-c3ccccc3)cc2)CC1 [Example 5a, 2-(1-Acetyl-piperidin-4-yl)-N-biphenyl-4-yl-acetamide] | 120 nM
O=C(C1CCC1)N1CCC(C2(C(=O)Nc3ccc(-c4cc(F)cc(F)c4)cc3)CC2)CC1 [Example 5j] | 2.7 nM
O=C(c1ccccn1)N1CCC(C2(C(=O)Nc3ccc(-c4cc(F)cc(F)c4)cc3)CC2)CC1 [Example 5m] | 14 nM
Cn1nccc1C(=O)N1CCC(C(C)(C)C(=O)Nc2ccc(-c3cc(F)cc(F)c3)cn2)CC1 [Example 5q, N-[5-(3,5-Difluoro-phenyl)-pyridin-2-yl]-2-[1-(2-methyl-2H-pyrazole-3-carbonyl)-piperidin-4-yl]-isobutyramide] | 570 nM
